# Molecular target: T1, human recombinant Dipeptidyl peptidase IV enzyme (DPP-IV) (Homo sapiens, UniProt P27487)
# T1 construct: purchased R&D Systems Inc. of Minneapolis, Minn
# Assay: in-vitro DPP-IV assay (cleavage of AMC from Gly-Pro-AMC)
# Assay type: biochemical
# Conditions: for IC50: human recombinant DPP-IV, Gly-Pro-AMC substrate, 30° C., 30 minutes, read-out: DPP-IV inhibition using human recombinant DPP-IV enzyme, IC50; for inhibition at 0.3 µM: at 300 nM, printed in the IC50 (nM) column, read-out: DPP-IV inhibition using human recombinant DPP-IV enzyme, percent inhibition
# Protocol: DPP-IV activity was determined by the cleavage rate of 7-amino-4-methyl coumarin (AMC) from the synthetic substrate Glycyl-Prolyl-AMC. In brief, the assay was conducted by adding 10 ng of human recombinant Dipeptidyl peptidase IV enzyme (DPP-IV, available commercially from R&D Systems Inc. of Minneapolis, Minn.) in 50 μl of the assay buffer (25 mM Tris, pH 7.4, 140 mM NaCl, 10 mM KCl, 1% BSA) to 96 well black flat bottom microtiter plates. The reaction was initiated by adding 50 μl of 100 μM substrate Gly-Pro-AMC. The incubation was carried out in the kinetic mode at 30° C. for 30 minutes. Fluorescence was measured using Fluorostar with an excitation filter of 380 nm and emission filter of 460 nm. Test compounds and solvent controls were added as 1 μl additions. A standard curve of free amino methyl coumarin (AMC) was generated using 0-100 μM AMC in the assay buffer. The curve generated, which was linear was used for the interpolation of catalytic activity.
# Test compounds dissolved in DMSO at 5-6 concentrations were tested in duplicate along with the solvent control and blank samples. Percent inhibition was calculated at each concentration with respect to the solvent control sample (no test compound added). […]
# T1 sequence (P27487 whole entry): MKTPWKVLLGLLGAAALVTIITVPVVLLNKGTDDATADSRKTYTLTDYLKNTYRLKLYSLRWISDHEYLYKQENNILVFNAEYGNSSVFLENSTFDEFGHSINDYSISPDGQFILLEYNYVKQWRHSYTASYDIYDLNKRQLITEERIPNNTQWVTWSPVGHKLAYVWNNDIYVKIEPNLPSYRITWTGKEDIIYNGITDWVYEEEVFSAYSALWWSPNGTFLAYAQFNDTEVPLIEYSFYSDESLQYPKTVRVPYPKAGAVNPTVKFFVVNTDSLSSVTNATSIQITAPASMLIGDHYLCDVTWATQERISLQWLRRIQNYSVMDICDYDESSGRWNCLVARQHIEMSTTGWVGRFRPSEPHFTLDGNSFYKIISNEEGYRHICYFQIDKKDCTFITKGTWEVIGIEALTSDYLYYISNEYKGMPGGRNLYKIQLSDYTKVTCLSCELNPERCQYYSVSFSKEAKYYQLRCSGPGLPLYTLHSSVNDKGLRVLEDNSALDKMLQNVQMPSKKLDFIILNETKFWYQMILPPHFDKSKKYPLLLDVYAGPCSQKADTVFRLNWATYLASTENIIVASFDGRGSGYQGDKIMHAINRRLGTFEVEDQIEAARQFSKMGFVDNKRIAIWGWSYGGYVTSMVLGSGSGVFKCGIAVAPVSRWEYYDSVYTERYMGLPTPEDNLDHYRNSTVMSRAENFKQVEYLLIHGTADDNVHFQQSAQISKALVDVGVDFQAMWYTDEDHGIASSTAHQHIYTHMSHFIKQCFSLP
IC50 [nM],inhibition at 0.3 µM [%],Structure (SMILES)
19.2,,"N#C[C@@H]1CCCN1C(=O)CN[C@H]1CC[C@@H](Cn2cc3ccccc3n2)C1 [Example-68, (2S)-1-{2-[(1S,3R)-3-(2H-Indazol-2-ylmethyl)cyclopentylamino]acetyl}pyrrolidin-2-carbonitrile]"
1.61,,"N#C[C@@H]1C[C@H](F)CN1C(=O)CN[C@@H]1CC[C@H](Cn2cncn2)C1 [Example-42, (2S,4S)-1-{2-[(3S,1R)-3-(1H-1,2,4-Triazol-1-ylmethyl)cyclopentylamino]acetyl}-4-fluoropyrrolidine-2-carbonitrile]"
5.05,,"N#Cc1ncn(CC2CCC(NCC(=O)N3CCC[C@H]3C#N)C2)c1C#N (mixture of isomers) [Example-33, 1-((1SR,3RS)-3-{2-[(2S)-2-Cyanopyrrolidin-1-yl]-2-oxoethylamino}cyclopentyl-methyl)-1H-4,5-imidazoledicarbonitrile]"
33,,"N#CC1CCN(C[C@H]2CC[C@@H](NCC(=O)N3CCC[C@H]3C#N)C2)CC1 (mixture of isomers) [Example-21, (2S)-1-{2-[(3SR,1RS)-3-(4-Cyanopiperidinylmethyl)cyclopentylamino]acetyl}-pyrrolidine-2-carbonitrile]"
4.44,,"N#C[C@@H]1C[C@H](F)CN1C(=O)CNC1CCC(Cn2cncn2)C1 (mixture of isomers) [Example-41, (2S,4S)-1-{2-[(3SR,1RS)-3-(1H-1,2,4-Triazol-1-ylmethyl)cyclopentylamino]acetyl}-4-fluoropyrrolidine-2-carbonitrile]"
9.12,,"N#C[C@@H]1CCCN1C(=O)CN[C@@H]1CC[C@H](Cn2cnnn2)C1 [Example-59, (2S)-1-{2-[(3S,1R)-3-[1H-1 ,2,3,4-Tetrazol-1-ylmethyl]cyclopentylamino]acetyl}-pyrrolidine-2-carbonitrile]"
17.7,,COc1ccccc1C[C@H]1CC[C@@H](NCC(=O)N2C[C@@H](F)C[C@H]2C#N)C1 [Example-16]
21.8,,"N#CC[C@@H]1CC[C@H](NCC(=O)N2CCC[C@H]2C#N)C1 [Example-6, (2S)-1-{2-[(3R,1S)-3-Cyanomethylcyclopentylamino]acetyl}-2-pyrrolidinecarbo nitrile]"
26.8,,"N#CCC1CCC(NCC(=O)N2CCC[C@H]2C#N)C1 (mixture of isomers) [Example-3, (2S)-1-{2-[(3SR,1RS)-3-Cyanomethylcyclopentylamino]acetyl}-2-pyrrolidine carbonitrile]"
13.2,,"N#C[C@@H]1CCCN1C(=O)CN[C@@H]1CC[C@H](CN2Cc3ccccc3C2)C1 [Example-65, (2S)-1-{2-[(3S,1R)-3-(2,3-Dihydro-1H-2-isoindolylmethyl)cyclopentylamino]acetyl}-pyrrolidine-2-carbonitrile]"
4.29,,"N#CC[C@H]1CC[C@@H](NCC(=O)N2C[C@@H](F)C[C@H]2C#N)C1 [Example-7, (2S,4S)-1-{2-[(3S,1R)-3-Cyanomethylcyclopentylamino]acetyl}-4-fluoro-2-pyrrol-idinecarbonitrile]"
4.19,,"Cc1ccc(C)n1C[C@H]1CC[C@@H](NCC(=O)N2CCC[C@H]2C#N)C1 [Example-24, (2S)-1-{2-[(3S,1R)-3-(2,5-Dimethyl-1H-1-pyrrolylmethyl)cyclopentylamino}acetyl}-pyrrolidine-2-carbonitrile]"
252,,"N#C[C@@H]1CCCN1C(=O)CNC1CCC(C(=O)Nc2ccccc2-c2ccccc2)C1 (mixture of isomers) [Example 75, 1-((1SR,3RS)-3-{2-[(2S)-2-Cyanopyrrolidin-1-yl)-2-oxoethylamino}cyclopentyl-carboxamido)-2-phenylbenzene]"
12.5,,"N#C[C@@H]1CCCN1C(=O)CN[C@H]1CC[C@@H](Cn2cncn2)C1 [Example-40, (2S)-1-{2-[(3R,1S)-3-(1H-1,2,4-Triazol-1-ylmethyl)cyclopentylamino]acetyl}-pyrrolidine-2-carbonitrile]"
145,,"N#C[C@@H]1CCCN1C(=O)CNC1CCC(C(=O)NOCc2ccccc2)C1 (mixture of isomers) [Example-12, N1-Benzyloxy-(1SR,3RS)-3-{2-[(2S)-2-cyanopyrrolidin-1-yl]-2-oxoethylamino}-cyclopentane-1-carboxamide]"
4.45,,"N#C[C@@H]1CCCN1C(=O)CN[C@@H]1CC[C@H](Cn2cnc3ccccc32)C1 [Example-69, (2S)-1-{2-[(3S,1R)-3-(1H-Benzo[d]imidazol-1-ylmethyl)cyclopenylamino]acetyl}-pyrrolidine-2-carbonitrile]"

IC50 [nM],inhibition at 0.3 µM [%],Structure (SMILES)
5.94,,"N#Cc1cccn1C[C@H]1CC[C@@H](NCC(=O)N2CCC[C@H]2C#N)C1 [Example-26, 1-((1S,3R)-3-{2-[(2S)-2-Cyanopyrrolidin-1-yl]-2-oxoethylamino}cyclopentylmethyl)-1H-pyrrole-2-carbonitrile]"
11.2,,"N#C[C@@H]1CCCN1C(=O)CN[C@@H]1CC[C@H](Cn2ccnc2)C1 [Example-29, (2S)-1-{2-[(3S,1R)-3-(1H-1-Imidazolylmethyl)cyclopentylamino]acetyl}pyrrolidine-2-carbonitrile]"
209,,"N#C[C@@H]1CCCN1C(=O)CNC1CCC(C(=O)NC23CC4CC(CC(C4)C2)C3)C1 (mixture of isomers) [Example 72, 1-((1SR,3RS)-3-{2-[(2S)-2-Cyanopyrrolidin-1-yl]-2-oxoethylamino}cyclopentyl-carboxamido)adamantine]"
10.6,,"N#C[C@@H]1C[C@H](F)CN1C(=O)CN[C@H]1CC[C@@H](Cn2nccn2)C1 [Example-58, (2S,4S)-1-{2-[(1S,3R)-3-(2H-1,2,3-Triazol-2-ylmethyl)cyclopentylamino]acetyl}-4-fluoropyrrolidine-2-carbonitrile]"
5.1,,"N#C[C@@H]1CCCN1C(=O)CN[C@@H]1CC[C@H](Cn2cncn2)C1 [Example-37, (2S)-1-{2-[(3S,1R)-3-(1H-1,2,4-Triazol-1-ylmethyl)cyclopentylamino]acetyl}-pyrrolidine-2-carbonitrile]"
,0,"O=C(CN[C@H]1CCC(Cn2cncn2)C1)N1CC[C@H](F)C1 (stereo in doubt) [Example-55, 1-[(3S)-3-Fluoropyrrolidin-1-yl]-2-[(1S,3S)-3-(1H-1,2,4-Triazol-1-ylmethyl)cyclo-pentylamino]-1-ethanone]"
11.4,,"N#C[C@@H]1CCCN1C(=O)CN[C@H]1CC[C@@H](Cn2cnnn2)C1 [Example-61, (2S)-1-{2-[(1S,3R)-3-(1H-1,2,3,4-Tetrazol-1-ylmethyl)cyclopentylamino]acetyl}-pyrrolidine-2-carbonitrile]"
288,,N#C[C@@H]1CCCN1C(=O)CNC1CCC(CN2CCSC2)C1 (mixture of isomers) [Example-17]
286,,"N#CC1CCC(NCC(=O)N2CCC[C@H]2C#N)C1 (mixture of isomers) [Example 2, (2S)-1-{2-[(3SR,1RS)-3-Cyanocyclopentylamino]acetyl}-2-pyrrolidinecarbonitrile]"
8.73,,"N#C[C@@H]1CCCN1C(=O)CN[C@@H]1CC[C@H](Cn2nnc(-c3ccc(F)cc3)n2)C1 [Example-62, (2S)-1-(2-{(3S,1R)-3-[5-(4-Fluorophenyl)-2H-1,2,3,4-tetrazol-2-ylmethyl]cyclo-pentylamino}acetyl)pyrrolidine-2-carbonitrile]"
123,,"CN1CCN(CC2CCC(NCC(=O)N3CCC[C@H]3C#N)C2)CC1 (mixture of isomers) [Example-20, (2S)-1-{2-[(3SR,1RS)-3-(4-Methylpiperazinomethyl)cyclopentylamino]acetyl}-pyrrolidine-2-carbonitrile]"
78.9,,"N#C[C@@H]1CCCN1C(=O)CN[C@H]1CC[C@@H](Cn2nccn2)C1 [Example-56, (2S)-1-{2-[(1S,3R)-3-(2H-1,2,3-Triazol-2-ylmethyl)cyclopentylamino]acetyl}-pyrrolidine-2-carbonitrile]"
,2,"N#C[C@@H]1CCCN1C(=O)CNC1CCC(C(=O)Nc2cc(F)c(F)cc2F)C1 (mixture of isomers) [Example 74, 1-((1SR,3RS)-3-{2-[(2S)-2-Cyanopyrrolidine-1-yl]-2-oxoethylamino}cyclopentyl-carboxamido)-2,4,5-trifluorobenzene]"
5.81,,"N#Cc1cn(C[C@H]2CC[C@@H](NCC(=O)N3C[C@@H](F)C[C@H]3C#N)C2)c2ccccc12 [Example-64, 1-((1S,3R)-3-{2-[(2S,4S)-2-Cyano-4-fluoropyrrolidin-1-yl]-2-oxoethylamino}cyclo-pentylmethyl)-1H-3-indolecarbonitrile]"
7.4,,"Cc1ccc(C)n1C[C@H]1CC[C@@H](NCC(=O)N2C[C@@H](F)C[C@H]2C#N)C1 [Example-25, (2S,4S)-1-{2-[(3S,1R)-3-(2,5-Dimethyl-1H-1-pyrrolylmethyl)cyclopentylamino]-acetyl}-4-fluoropyrrolidine-2-carbonitrile]"
4.36,,"N#CC[C@@H]1CC[C@H](NCC(=O)N2C[C@@H](F)C[C@H]2C#N)C1 [Example-8, (2S,4S)-1-{2-1[(3R,1S)-3-Cyanomethylcyclopentylamino]acetyl}-4-fluoro-2-pyrro-idinecarbonitrile]"

Structure (SMILES),IC50 [nM],inhibition at 0.3 µM [%]
"N#C[C@@H]1C[C@H](F)CN1C(=O)CN[C@@H]1CC[C@H](Cc2ccccc2)C1 [Example-15, (2S,4S)-1-{2-[(1R,3R)-3-Benzylcyclopentylamino]acetyl}-4-fluoropyrrolidin-2-yl cyanide]",6.06,

# Source: patent US7524844B2, “Dipeptidyl peptidase IV inhibitors, process for their preparation and compositions containing them” (Glenmark Pharmaceuticals S.A., priority 2004, dated 2009)
